# From patent US11420947B2, “(S)-n-hydroxy-2-(2-(4-methoxyphenyl)butanamido)thiazole-5-carboxamide and pharmaceutically acceptable salts thereof” (TRANSLATIONAL DRUG DEVELOPMENT, LLC, priority 2018, dated 2022)
# Assays:
# Test in all cases: CellTiter-Glo cell viability assay
# Assay type in all cases: cell-based
# H358 = conditions: for IC50: Homo sapiens, NCI-H358, H358, LUNG, NSCLC, 72 hours
# In short: (§1)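 Seed 2.5×10^3–5×10^3 cells/well (Day 0); treat from Day 1 for 72 h; remove drug media; add CellTiter-Glo, incubate 37° C; read luminescence; normalise to vehicle.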
# ACHN = conditions: for IC50: Homo sapiens, ACHN, RENAL, RCC, 72 hours
# In short: as §1
# SNU-1 = conditions: for IC50: Homo sapiens, SNU1, SNU-1, GASTRIC, Carcinoma, 72 hours
# In short: as §1
# HCC70 = conditions: for IC50: Homo sapiens, HCC70, BREAST, TNBC, 72 hours
# In short: as §1
# H23 = conditions: for IC50: Homo sapiens, NCI-H23, H23, LUNG, NSCLC, 72 hours
# In short: as §1
# KLE = conditions: for IC50: Homo sapiens, KLE, ENDOMETRIAL, 72 hours
# In short: as §1
# H460 = conditions: for IC50: Homo sapiens, NCI-H460, H460, LUNG, NSCLC, 72 hours
# In short: as §1
# MiaPaCa = conditions: for IC50: Homo sapiens, MIA PaCa-2, MiaPaCa, PANCREAS, Pancreatic, 72 hours
# In short: as §1
# HT-29 = conditions: for IC50: Homo sapiens, HT-29, COLON, CRC, 72 hours
# In short: as §1
# FaDu = conditions: for IC50: Homo sapiens, FaDu, H&N SQUAMOUS CELL, Pharynx, 72 hours
# In short: as §1
# THP-1 = conditions: for IC50: Homo sapiens, THP-1, HEMATOPIETIC, AML, 72 hours
# In short: as §1
# A549 = conditions: for IC50: Homo sapiens, A549, LUNG, NSCLC, 72 hours
# In short: as §1
# Raji = conditions: for IC50: Homo sapiens, Raji, HEMATOPIETIC, Burkitt’s, 72 hours
# In short: as §1
# Hs695T = conditions: for IC50: Homo sapiens, Hs 695T, Hs695T, MELANOMA, LN Met, 72 hours
# In short: as §1
# H522 = conditions: for IC50: Homo sapiens, NCI-H522, H522, LUNG, NSCLC, 72 hours
# In short: as §1
# N87 = conditions: for IC50: N87, GASTRIC, Carcinoma, 72 hours
# In short: as §1
# OCI-Ly3 = conditions: for IC50: Homo sapiens, OCI-Ly3, HEMATOPIETIC, DLBCL, 72 hours
# In short: as §1
# MSTO-211H = conditions: for IC50: Homo sapiens, MSTO-211H, LUNG, Mesothelioma, 72 hours
# In short: as §1
# AN3CA = conditions: for IC50: Homo sapiens, AN3-CA, AN3CA, ENDOMETRIAL, 72 hours
# In short: as §1
smiles,measurement,setting,value
"CCC(C(=O)Nc1ncc(C(=O)NO)s1)c1ccc(OC)cc1 (racemic) [#1, N-hydroxy-2-(2-(4-methoxyphenyl)butanamido)thiazole-5-carboxamide]",IC50,H358,158 nM
same,IC50,ACHN,229 nM
same,IC50,SNU-1,509 nM
same,IC50,HCC70,100 nM
same,IC50,H23,76 nM
same,IC50,KLE,215 nM
same,IC50,H460,79 nM
same,IC50,MiaPaCa,51 nM
same,IC50,HT-29,136 nM
same,IC50,FaDu,10 nM
same,IC50,THP-1,65 nM
same,IC50,A549,76 nM
same,IC50,Raji,105 nM
same,IC50,Hs695T,372 nM
same,IC50,H522,178 nM
same,IC50,N87,120 nM
same,IC50,OCI-Ly3,65 nM
same,IC50,MSTO-211H,128 nM
same,IC50,AN3CA,66 nM
"CC[C@H](C(=O)Nc1ncc(C(=O)NO)s1)c1ccc(OC)cc1 [#1a, (S)—N-hydroxy-2-(2-(4-methoxyphenyl)butanamido)thiazole-5-carboxamide]",IC50,H358,69 nM
same,#1/#1a,"H358; ratio of IC50, H358",2.29
same,#1b/#1a,"H358; ratio of IC50, H358",8.09
same,IC50,ACHN,78 nM
same,#1/#1a,"ACHN; ratio of IC50, ACHN",2.94
same,#1b/#1a,"ACHN; ratio of IC50, ACHN",9.44
same,#1/#1a,"SNU-1; ratio of IC50, SNU-1",3.86
same,#1b/#1a,"SNU-1; ratio of IC50, SNU-1",10.63
same,IC50,HCC70,52 nM
same,#1/#1a,"HCC70; ratio of IC50, HCC70",1.92
same,#1b/#1a,"HCC70; ratio of IC50, HCC70",6.56
same,IC50,H23,47 nM
same,#1/#1a,"H23; ratio of IC50, H23",1.62
same,#1b/#1a,"H23; ratio of IC50, H23",9.02
same,IC50,KLE,106 nM
same,#1/#1a,"KLE; ratio of IC50, KLE",2.03
same,#1b/#1a,"KLE; ratio of IC50, KLE",8.03
same,IC50,H460,50 nM
same,#1/#1a,"H460; ratio of IC50, H460",1.58
same,#1b/#1a,"H460; ratio of IC50, H460",7.26
same,IC50,MiaPaCa,35 nM
same,#1/#1a,"MiaPaCa; ratio of IC50, MiaPaCa",1.46
same,#1b/#1a,"MiaPaCa; ratio of IC50, MiaPaCa",8.26
same,IC50,HT-29,43 nM
same,#1/#1a,"HT-29; ratio of IC50, HT-29",3.16
same,#1b/#1a,"HT-29; ratio of IC50, HT-29",9.53
same,IC50,FaDu,40 nM
same,#1/#1a,"FaDu; ratio of IC50, FaDu",0.25
same,#1b/#1a,"FaDu; ratio of IC50, FaDu",8.28
same,IC50,THP-1,32 nM
same,#1/#1a,"THP-1; ratio of IC50, THP-1",2.03
same,#1b/#1a,"THP-1; ratio of IC50, THP-1",6.13
same,IC50,A549,52 nM
same,#1/#1a,"A549; ratio of IC50, A549",1.46
same,#1b/#1a,"A549; ratio of IC50, A549",7.65
same,IC50,Raji,36 nM
same,#1/#1a,"Raji; ratio of IC50, Raji",2.92
same,#1b/#1a,"Raji; ratio of IC50, Raji",7.83
same,IC50,Hs695T,52 nM
same,#1/#1a,"Hs695T; ratio of IC50, Hs695T",7.15
same,#1b/#1a,"Hs695T; ratio of IC50, Hs695T",18.65
same,IC50,H522,115 nM
same,#1/#1a,"H522; ratio of IC50, H522",1.55
same,#1b/#1a,"H522; ratio of IC50, H522",8.5
same,IC50,N87,18 nM
same,#1/#1a,"N87; ratio of IC50, N87",6.67
same,#1b/#1a,"N87; ratio of IC50, N87",18.39
same,IC50,OCI-Ly3,35 nM
same,#1/#1a,"OCI-Ly3; ratio of IC50, OCI-Ly3",1.86
same,#1b/#1a,"OCI-Ly3; ratio of IC50, OCI-Ly3",4.86
same,IC50,MSTO-211H,52 nM
same,#1/#1a,"MSTO-211H; ratio of IC50, MSTO-211H",2.46
same,#1b/#1a,"MSTO-211H; ratio of IC50, MSTO-211H",6.77
same,IC50,AN3CA,47 nM
same,#1/#1a,"AN3CA; ratio of IC50, AN3CA",1.4
same,#1b/#1a,"AN3CA; ratio of IC50, AN3CA",4.87
"CC[C@@H](C(=O)Nc1ncc(C(=O)NO)s1)c1ccc(OC)cc1 [#1b, (R)—N-hydroxy-2-(2-(4-methoxyphenyl)butanamido)thiazole-5-carboxamide]",IC50,H358,558 nM
same,IC50,ACHN,736 nM
same,IC50,SNU-1,1400 nM
same,IC50,HCC70,341 nM
same,IC50,H23,424 nM
same,IC50,KLE,851 nM
same,IC50,H460,363 nM
same,IC50,MiaPaCa,289 nM
same,IC50,HT-29,410 nM
same,IC50,FaDu,331 nM
same,IC50,THP-1,196 nM
same,IC50,A549,398 nM
same,IC50,Raji,282 nM
same,IC50,Hs695T,970 nM
same,IC50,H522,977 nM
same,IC50,N87,331 nM
same,IC50,OCI-Ly3,170 nM
same,IC50,MSTO-211H,352 nM
same,IC50,AN3CA,229 nM
